Consider twelve molecules from patent publication US10604524B2, “Pyrropyrimidine compounds as MNKs inhibitors” (LIFEARC, priority 2015, dated 2020).

In one assay the target is Full-length human MNK1 (Homo sapiens, UniProt Q9BUB5, T385D). Description: MNK1 biochemical IC50 assay (Caliper mobility shift).
A further assay deals with Full-length human MNK2 (Homo sapiens, UniProt Q9HBH9, T379D). The assay can be described thus: MNK2 biochemical IC50 assay (Caliper mobility shift).
In assay [1] the test system is phosphorylation of eIF4E at ser209 in MV4.11 cell line. Description: cells. The conditions noted are these: Homo sapiens; MV4.11 cells, 1.5 hr compound incubation, average of at least 2 independent experiments; read-out: plc50 elF4E (converted). Type of assay: cell-based. The method, then: MNK activity in cells was measured by monitoring the phosphorylation of eIF4E at ser209, the known endogenous substrate of MNK1/2, in cell lysates. […] The assay detection is based on the formation of sandwich antibody complexes coupled to donor and acceptor beads. Excitation at 680 nm causes the transfer of a singlet oxygen species between donor and acceptor beads when they are in close proximity by binding to the analyte […], which results in the emission of light at 520-620 nm.
Cells were then lysed and the Aphascreen Surefire protocol followed according to manufacturer's recommendations. 8 ul Acceptor beads (1:50 dilution in kit activation buffer) was added to lysate, shaken 150 rpm for 2 min and incubated for 1.5 hr at room temperature. 3 ul Donor beads (1:20 dilution in kit dilution buffer) were then added, shaken 150 rpm for 2 min and incubated for a further 1.5 hr at room temperature after which the plates were read on Pherastar FS using Alphascreen optic module.
Data were normalised relative to untreated DMSO only controls and curves repeated in duplicate within experiments. Data reported are averages of at least 2 independent experiments.

Chain of Full-length human MNK2 (Q9HBH9 whole entry T379D): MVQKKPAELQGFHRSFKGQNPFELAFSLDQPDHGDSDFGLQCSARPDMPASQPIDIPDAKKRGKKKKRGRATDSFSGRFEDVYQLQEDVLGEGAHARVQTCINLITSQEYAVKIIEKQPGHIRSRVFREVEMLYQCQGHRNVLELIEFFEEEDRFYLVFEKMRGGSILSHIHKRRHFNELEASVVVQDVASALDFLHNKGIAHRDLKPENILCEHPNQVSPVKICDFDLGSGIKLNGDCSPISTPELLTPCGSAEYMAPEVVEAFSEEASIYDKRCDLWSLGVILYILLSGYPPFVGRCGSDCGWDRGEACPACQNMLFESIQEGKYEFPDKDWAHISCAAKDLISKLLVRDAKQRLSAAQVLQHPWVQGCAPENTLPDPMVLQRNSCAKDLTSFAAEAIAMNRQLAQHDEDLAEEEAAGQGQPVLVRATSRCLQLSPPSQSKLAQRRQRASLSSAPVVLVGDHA
Chain of Full-length human MNK1 (Q9BUB5 1-424 isoform Q9BUB5-2 T344D): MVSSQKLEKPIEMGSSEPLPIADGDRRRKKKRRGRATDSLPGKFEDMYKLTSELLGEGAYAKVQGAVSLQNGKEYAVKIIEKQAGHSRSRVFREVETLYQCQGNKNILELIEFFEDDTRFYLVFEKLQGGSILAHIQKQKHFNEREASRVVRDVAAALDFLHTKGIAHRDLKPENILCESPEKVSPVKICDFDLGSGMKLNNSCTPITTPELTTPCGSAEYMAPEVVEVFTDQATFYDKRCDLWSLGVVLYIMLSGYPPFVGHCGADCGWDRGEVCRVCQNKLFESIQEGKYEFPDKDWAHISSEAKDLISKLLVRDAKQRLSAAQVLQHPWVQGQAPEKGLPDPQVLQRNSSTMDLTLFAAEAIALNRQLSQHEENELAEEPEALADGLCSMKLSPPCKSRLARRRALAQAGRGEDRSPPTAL

With `CC(C)Oc1cc(C#N)ccc1Nc1ncnc2ccn(C)c12` [Example 7, 3-Isopropoxy-4-[(5-methylpyrrolo[3,2-d]pyrimidin-4-yl)amino]benzonitrile], the figures for the IC50 (at Full-length human MNK1; on Full-length human MNK2; in assay [1]) were 50.1 nM, 25.1 nM and 31.6 nM, respectively.
As for `Cc1ccc(Nc2ncnc3ccn(C)c23)c(OC(C)C)c1` [Example 8, N-(2-isopropoxy-4-methyl-phenyl)-5-methyl-pyrrolo[3,2-d]pyrimidin-4-amine], the results for the IC50 (on Full-length human MNK1; on Full-length human MNK2; in assay [1]) were 3160 nM, 1260 nM and 501 nM, respectively.
In the same order, the values of `CC(C)Oc1cc(Cl)ccc1Nc1ncnc2ccn(C)c12` [Example 9, N-(4-chloro-2-isopropoxy-phenyl)-5-methyl-pyrrolo[3,2-d]pyrimidin-4-amine] are 158 nM, 79.4 nM and 79.4 nM.
On to `COc1ccc(Nc2ncnc3ccn(C)c23)c(OC(C)C)c1` [Example 10, N-(2-isopropoxy-4-methoxy-phenyl)-5-methyl-pyrrolo[3,2-d]pyrimidin-4-amine], for which the IC50 was 10000 nM on Full-length human MNK1, 1260 nM on Full-length human MNK2 and 200 nM in assay [1].
With `Cn1ccc2ncnc(Nc3ccc(F)cc3O[C@H]3CC[C@H](O)CC3)c21` [Example 12, 4-[5-fluoro-2-[(5-methylpyrrolo[3,2-d]pyrimidin-4-yl)amino]phenoxy]cyclohexanol], the results for the IC50 (on Full-length human MNK1; on Full-length human MNK2; in assay [1]) were 200 nM, 79.4 nM and 15.8 nM, respectively.
Take `Cn1ccc2ncnc(Nc3ccc(F)cc3OC3CCOCC3)c21` [Example 13, N-(4-fluoro-2-tetrahydropyran-4-yloxy-phenyl)-5-methyl-pyrrolo[3,2-d]pyrimidin-4-amine]: the IC50 at Full-length human MNK1 is 316 nM; on Full-length human MNK2, 158 nM; in assay [1] it was 63.1 nM.
As for `Cn1ccc2ncnc(Nc3ccc4[nH]ncc4c3)c21` [Example 14, N-(1H-indazol-5-yl)-5-methyl-pyrrolo[3,2-d]pyrimidin-4-amine], the IC50 is 251 nM on Full-length human MNK1, 398 nM at Full-length human MNK2 and 398 nM in assay [1].
For the molecule `Cn1ccc2ncnc(Nc3ccc(F)cc3O[C@H]3CCOC3)c21` [Example 15, N-[4-fluoro-2-[(3S)-tetrahydrofuran-3-yl]oxy-phenyl]-5-methyl-pyrrolo[3,2-d]pyrimidin-4-amine], the IC50 is 398 nM at Full-length human MNK1, 158 nM at Full-length human MNK2 and 31.6 nM in assay [1].
On to `Cn1ccc2ncnc(Nc3ccc(F)cc3O[C@@H]3CCOC3)c21` [Example 16, N-[4-fluoro-2-[(3R)-tetrahydrofuran-3-yl]oxy-phenyl]-5-methyl-pyrrolo[3,2-d]pyrimidin-4-amine], for which the IC50 at Full-length human MNK1 is 251 nM; on Full-length human MNK2, 126 nM; in assay [1], 79.4 nM.
Regarding `Cn1ccc2ncnc(Nc3ccc(F)cc3OC3CCC3)c21` [Example 17, N-[2-(cyclobutoxy)-4-fluoro-phenyl]-5-methyl-pyrrolo[3,2-d]pyrimidin-4-amine], the IC50 is 200 nM at Full-length human MNK1, 79.4 nM at Full-length human MNK2 and 31.6 nM in assay [1].
Take `CO[C@H]1CCC[C@@H](Oc2cc(F)ccc2Nc2ncnc3ccn(C)c23)C1` [Example 20, N-[4-fluoro-2-[(1R,3S)-3-methoxycyclohexoxy]phenyl]-5-methyl-pyrrolo[3,2-d]pyrimidin-4-amine]: the IC50 on Full-length human MNK1 is 3160 nM; at Full-length human MNK2, 631 nM; in assay [1] it was 200 nM.
Turning to `CO[C@@H]1CCC[C@H](Oc2cc(F)ccc2Nc2ncnc3ccn(C)c23)C1` [Example 21, N-[4-fluoro-2-[(1S,3R)-3-methoxycyclohexoxy]phenyl]-5-methyl-pyrrolo[3,2-d]pyrimidin-4-amine], the IC50 on Full-length human MNK1 is 158 nM; at Full-length human MNK2 it was 79.4 nM; in assay [1] it was 25.1 nM.
